Data: ChEMBL document CHEMBL5465560, “Selectivity Literature for EUbOPEN Chemogenomic Library” (2024)
pIC50: −log10 of the molar value. Values belong to the compound of their own block, whether it stands above or below them.

Experiments:
[1] = target: Ribosomal protein S6 kinase alpha-3 (Homo sapiens, UniProt P51812); assay: Selectivity interaction (KinomeScan (DiscoverX)) EUB0001079a RPS6KA3; conditions: at 1 µM
[2] = target: BMP-2-inducible protein kinase (Homo sapiens) (UniProt Q9NSY1); assay: Selectivity interaction (KinomeScan (DiscoverX)) EUB0000618a BMP2K; conditions: at 10 µM
[3] = target: T1, Peripheral plasma membrane protein CASK (Homo sapiens) (UniProt O14936); assay: Selectivity interaction (Kinase panel (DSF assay)) EUB0001558a CASK
T1 sequence (whole entry): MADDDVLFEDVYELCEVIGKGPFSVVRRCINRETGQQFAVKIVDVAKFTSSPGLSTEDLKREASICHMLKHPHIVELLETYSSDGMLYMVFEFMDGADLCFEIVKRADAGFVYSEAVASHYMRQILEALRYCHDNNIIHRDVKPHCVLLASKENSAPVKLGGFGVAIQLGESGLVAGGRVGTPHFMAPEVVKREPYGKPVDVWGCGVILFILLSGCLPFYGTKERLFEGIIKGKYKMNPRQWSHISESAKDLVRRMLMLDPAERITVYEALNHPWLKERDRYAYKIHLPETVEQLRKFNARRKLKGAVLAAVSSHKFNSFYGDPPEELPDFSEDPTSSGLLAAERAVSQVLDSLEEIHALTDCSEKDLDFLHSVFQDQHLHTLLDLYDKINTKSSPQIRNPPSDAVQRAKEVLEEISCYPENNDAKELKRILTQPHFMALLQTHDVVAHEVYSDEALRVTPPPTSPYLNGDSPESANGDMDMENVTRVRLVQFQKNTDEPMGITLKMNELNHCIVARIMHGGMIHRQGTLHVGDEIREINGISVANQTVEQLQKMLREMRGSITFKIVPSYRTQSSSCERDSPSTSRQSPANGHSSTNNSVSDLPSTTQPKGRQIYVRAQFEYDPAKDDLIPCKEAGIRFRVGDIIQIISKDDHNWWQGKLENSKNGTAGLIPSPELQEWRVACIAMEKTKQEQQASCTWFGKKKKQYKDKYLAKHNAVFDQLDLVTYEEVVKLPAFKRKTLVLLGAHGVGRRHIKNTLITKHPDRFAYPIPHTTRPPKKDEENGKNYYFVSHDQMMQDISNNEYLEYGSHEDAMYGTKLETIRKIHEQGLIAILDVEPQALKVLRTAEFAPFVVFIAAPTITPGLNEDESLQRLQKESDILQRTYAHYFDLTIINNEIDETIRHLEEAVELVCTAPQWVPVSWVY

[4] = target: Ribosomal protein S6 kinase alpha-4 (Homo sapiens) (UniProt O75676); assay: Selectivity interaction (KinomeScan (DiscoverX)) EUB0000595a RPS6KA4; conditions: at 10 µM
[5] = target: Mitogen-activated protein kinase 3 (Homo sapiens, UniProt P27361); conditions: at 10 µM
[6] = target: Histone acetyltransferase KAT2B (Homo sapiens, UniProt Q92831); assay: Selectivity interaction (Bromodomain panel (DSF asssay)) EUB0000270b KAT2B
[7] = target: Tyrosine-protein kinase ABL1 (Homo sapiens, UniProt P00519); assay: Selectivity interaction (Kinase panel (Enzyme activity assay)) EUB0000612a ABL1
[8] = target: Serine/threonine-protein kinase SIK3 (Homo sapiens) (UniProt Q9Y2K2); assay: Selectivity interaction (KinomeScan (DiscoverX)) EUB0000666a SIK3; conditions: at 10 µM
[9] = target: T2, Mitogen-activated protein kinase kinase kinase 12 (Homo sapiens) (UniProt Q12852); assay: Selectivity interaction (KinomeScan (DiscoverX)) EUB0000092b MAP3K12; conditions: at 10 µM
T2 sequence (whole entry): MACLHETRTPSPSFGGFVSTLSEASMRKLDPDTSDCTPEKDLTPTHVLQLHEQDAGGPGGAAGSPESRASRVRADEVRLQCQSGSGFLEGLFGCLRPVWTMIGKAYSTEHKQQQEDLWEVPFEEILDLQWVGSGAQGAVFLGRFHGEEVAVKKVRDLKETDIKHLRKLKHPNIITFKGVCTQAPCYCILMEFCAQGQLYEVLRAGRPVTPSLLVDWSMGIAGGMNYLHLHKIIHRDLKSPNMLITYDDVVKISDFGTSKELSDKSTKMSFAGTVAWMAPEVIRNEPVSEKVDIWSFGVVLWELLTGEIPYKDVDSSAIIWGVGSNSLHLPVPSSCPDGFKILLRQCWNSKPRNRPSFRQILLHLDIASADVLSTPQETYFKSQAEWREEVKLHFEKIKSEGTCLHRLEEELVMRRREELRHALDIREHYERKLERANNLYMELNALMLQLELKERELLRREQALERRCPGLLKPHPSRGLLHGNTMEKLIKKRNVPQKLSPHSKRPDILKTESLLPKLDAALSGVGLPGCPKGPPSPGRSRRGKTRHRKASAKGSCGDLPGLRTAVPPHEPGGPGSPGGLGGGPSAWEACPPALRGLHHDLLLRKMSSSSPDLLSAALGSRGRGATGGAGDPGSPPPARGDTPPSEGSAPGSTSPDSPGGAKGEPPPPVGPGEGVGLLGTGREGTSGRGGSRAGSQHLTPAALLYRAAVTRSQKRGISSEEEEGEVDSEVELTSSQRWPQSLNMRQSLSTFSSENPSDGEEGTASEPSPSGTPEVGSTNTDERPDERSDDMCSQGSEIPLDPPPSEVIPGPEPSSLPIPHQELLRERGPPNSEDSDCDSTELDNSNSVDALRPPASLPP

Ribosomal protein S6 kinase alpha-3, sequence (P51812 whole entry): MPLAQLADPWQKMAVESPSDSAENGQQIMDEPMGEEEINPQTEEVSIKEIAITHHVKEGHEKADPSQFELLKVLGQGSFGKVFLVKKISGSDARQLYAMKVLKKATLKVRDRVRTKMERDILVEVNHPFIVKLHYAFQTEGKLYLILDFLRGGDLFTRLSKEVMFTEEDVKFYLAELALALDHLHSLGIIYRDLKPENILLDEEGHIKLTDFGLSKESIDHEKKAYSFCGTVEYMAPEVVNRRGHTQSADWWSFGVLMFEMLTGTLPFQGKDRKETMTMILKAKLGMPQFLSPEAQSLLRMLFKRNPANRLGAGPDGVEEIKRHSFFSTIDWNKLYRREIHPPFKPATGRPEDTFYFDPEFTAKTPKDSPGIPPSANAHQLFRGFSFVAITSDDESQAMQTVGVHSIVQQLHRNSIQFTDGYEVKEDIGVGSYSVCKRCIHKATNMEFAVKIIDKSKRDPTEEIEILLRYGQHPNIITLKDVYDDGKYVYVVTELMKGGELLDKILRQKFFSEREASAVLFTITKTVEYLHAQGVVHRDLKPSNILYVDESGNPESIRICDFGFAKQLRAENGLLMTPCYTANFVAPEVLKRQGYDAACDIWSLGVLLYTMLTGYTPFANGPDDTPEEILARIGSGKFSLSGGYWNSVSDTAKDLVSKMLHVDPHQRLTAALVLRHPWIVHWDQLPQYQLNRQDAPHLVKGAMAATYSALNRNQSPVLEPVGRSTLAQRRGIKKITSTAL
Ribosomal protein S6 kinase alpha-4 (Homo sapiens), sequence (O75676 whole entry, looked up): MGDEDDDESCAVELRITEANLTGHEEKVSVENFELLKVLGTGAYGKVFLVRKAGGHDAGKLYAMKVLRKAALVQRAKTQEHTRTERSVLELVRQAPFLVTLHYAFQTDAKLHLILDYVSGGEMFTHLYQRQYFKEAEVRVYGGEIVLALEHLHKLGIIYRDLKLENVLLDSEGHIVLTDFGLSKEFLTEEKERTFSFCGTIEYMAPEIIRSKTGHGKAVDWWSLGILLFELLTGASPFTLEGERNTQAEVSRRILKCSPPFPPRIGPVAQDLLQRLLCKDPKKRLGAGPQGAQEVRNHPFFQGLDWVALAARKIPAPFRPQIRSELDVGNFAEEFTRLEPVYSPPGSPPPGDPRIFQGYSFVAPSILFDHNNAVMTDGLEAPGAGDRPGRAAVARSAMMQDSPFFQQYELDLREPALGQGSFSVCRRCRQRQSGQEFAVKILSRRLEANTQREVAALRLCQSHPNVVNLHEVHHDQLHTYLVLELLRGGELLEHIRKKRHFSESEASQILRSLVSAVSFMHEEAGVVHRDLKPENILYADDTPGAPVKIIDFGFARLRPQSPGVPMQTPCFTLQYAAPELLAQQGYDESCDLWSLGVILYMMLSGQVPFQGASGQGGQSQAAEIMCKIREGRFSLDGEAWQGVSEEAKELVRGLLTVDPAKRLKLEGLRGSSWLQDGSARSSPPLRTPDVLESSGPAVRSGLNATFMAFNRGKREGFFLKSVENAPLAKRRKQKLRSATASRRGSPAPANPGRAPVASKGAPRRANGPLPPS
Serine/threonine-protein kinase SIK3 (Homo sapiens), sequence (Q9Y2K2 whole entry, looked up): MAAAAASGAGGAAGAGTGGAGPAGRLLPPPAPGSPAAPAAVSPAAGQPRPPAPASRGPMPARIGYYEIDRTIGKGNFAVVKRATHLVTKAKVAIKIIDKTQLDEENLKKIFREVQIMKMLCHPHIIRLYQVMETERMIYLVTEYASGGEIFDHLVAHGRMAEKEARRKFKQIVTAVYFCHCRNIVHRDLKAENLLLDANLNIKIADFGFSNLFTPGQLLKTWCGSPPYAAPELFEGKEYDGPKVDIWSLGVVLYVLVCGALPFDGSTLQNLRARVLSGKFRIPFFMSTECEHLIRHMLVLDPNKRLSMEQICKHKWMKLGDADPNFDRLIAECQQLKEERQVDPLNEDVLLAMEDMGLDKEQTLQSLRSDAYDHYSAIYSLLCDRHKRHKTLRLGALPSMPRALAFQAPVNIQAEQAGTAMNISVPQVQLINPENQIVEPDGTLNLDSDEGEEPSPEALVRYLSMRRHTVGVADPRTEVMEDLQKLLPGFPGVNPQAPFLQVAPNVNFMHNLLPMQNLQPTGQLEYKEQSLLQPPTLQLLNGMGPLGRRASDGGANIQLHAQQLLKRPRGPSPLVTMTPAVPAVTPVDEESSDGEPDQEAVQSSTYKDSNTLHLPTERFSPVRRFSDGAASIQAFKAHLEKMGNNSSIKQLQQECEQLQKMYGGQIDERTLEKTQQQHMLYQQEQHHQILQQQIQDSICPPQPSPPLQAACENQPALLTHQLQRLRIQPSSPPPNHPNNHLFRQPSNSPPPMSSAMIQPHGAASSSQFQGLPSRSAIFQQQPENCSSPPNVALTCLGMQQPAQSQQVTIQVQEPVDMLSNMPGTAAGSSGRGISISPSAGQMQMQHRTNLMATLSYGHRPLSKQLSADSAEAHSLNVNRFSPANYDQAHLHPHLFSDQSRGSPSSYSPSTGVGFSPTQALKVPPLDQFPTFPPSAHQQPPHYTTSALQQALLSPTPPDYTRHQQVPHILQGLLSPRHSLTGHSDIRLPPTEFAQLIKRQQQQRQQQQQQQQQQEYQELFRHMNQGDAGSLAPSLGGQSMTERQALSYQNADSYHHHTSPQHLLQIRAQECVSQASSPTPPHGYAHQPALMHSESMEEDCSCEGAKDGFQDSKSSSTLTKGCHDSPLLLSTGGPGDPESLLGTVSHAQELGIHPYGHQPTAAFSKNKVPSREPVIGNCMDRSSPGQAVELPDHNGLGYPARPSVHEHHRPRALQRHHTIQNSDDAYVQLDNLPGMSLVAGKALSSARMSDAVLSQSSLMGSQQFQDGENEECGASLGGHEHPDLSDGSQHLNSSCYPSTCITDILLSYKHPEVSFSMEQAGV
BMP-2-inducible protein kinase (Homo sapiens), sequence (Q9NSY1 whole entry, looked up): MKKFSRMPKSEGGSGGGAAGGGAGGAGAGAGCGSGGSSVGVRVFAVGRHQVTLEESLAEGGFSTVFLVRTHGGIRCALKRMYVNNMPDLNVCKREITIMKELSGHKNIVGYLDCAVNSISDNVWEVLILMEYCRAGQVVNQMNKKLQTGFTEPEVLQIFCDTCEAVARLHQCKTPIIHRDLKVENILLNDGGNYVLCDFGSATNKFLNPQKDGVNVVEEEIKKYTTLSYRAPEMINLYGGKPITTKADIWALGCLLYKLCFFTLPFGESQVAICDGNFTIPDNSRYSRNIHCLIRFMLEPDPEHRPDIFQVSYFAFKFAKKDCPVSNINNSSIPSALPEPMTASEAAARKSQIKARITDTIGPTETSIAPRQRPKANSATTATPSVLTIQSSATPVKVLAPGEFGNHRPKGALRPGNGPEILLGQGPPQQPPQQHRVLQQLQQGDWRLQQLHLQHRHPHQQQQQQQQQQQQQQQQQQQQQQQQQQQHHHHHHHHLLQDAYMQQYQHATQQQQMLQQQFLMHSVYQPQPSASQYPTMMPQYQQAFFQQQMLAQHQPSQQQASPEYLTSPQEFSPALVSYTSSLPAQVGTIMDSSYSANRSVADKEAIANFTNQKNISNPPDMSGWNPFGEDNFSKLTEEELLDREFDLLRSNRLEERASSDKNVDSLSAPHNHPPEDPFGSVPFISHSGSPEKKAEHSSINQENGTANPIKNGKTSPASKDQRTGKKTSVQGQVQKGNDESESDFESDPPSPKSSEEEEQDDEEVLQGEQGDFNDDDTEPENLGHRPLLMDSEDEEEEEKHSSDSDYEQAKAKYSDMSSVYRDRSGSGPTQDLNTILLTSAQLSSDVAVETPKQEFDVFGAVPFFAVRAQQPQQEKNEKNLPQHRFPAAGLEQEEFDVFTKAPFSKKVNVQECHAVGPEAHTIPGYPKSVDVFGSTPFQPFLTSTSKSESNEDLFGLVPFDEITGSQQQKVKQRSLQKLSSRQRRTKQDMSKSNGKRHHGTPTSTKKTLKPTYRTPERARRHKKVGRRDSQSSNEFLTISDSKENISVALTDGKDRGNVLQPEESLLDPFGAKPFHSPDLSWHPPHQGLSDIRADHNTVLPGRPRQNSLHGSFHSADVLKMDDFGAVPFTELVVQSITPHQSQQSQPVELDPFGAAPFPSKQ
Tyrosine-protein kinase ABL1, sequence (P00519 whole entry): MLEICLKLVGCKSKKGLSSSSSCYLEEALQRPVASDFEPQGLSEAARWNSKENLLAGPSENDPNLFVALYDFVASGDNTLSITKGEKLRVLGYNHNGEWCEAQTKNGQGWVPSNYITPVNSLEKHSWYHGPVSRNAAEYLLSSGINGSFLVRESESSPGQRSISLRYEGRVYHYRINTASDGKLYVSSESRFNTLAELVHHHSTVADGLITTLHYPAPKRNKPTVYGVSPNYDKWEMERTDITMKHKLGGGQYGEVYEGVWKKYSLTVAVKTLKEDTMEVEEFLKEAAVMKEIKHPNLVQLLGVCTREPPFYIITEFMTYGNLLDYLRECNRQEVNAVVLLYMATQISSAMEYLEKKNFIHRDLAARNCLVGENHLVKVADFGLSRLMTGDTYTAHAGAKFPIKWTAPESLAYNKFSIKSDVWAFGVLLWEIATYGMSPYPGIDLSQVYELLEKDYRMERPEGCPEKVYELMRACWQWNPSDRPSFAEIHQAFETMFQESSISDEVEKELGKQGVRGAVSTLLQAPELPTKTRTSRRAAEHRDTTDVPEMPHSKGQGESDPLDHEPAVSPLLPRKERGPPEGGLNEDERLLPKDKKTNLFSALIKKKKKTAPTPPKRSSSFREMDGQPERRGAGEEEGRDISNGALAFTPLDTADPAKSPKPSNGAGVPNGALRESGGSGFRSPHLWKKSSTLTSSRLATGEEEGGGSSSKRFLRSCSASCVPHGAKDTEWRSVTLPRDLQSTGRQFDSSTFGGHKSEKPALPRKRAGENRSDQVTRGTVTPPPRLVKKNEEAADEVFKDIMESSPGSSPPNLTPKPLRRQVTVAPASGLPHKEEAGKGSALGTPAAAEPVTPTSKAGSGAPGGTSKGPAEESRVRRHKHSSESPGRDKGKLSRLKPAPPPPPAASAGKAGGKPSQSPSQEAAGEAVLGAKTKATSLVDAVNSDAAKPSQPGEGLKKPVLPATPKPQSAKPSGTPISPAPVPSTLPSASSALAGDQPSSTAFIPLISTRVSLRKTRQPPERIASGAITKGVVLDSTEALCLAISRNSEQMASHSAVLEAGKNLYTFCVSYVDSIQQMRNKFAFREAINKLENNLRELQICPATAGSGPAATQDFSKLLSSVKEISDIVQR

Compound: Nc1cnc(N2CCc3cc(S(=O)(=O)Nc4c(F)cc(Cl)cc4F)cc(N4CCCC4=O)c32)nc1 [TP-020n]
% of control [1]: 100%

Compound: O[C@H]1CC[C@H](Nc2ncc3nc(Nc4c(F)cc(F)cc4F)n([C@H]4CCOC4)c3n2)CC1
% of control [2]: 100%

Compound: CC(C)(O)[C@H](F)CN1Cc2cc(NC(=O)c3cnn4cccnc34)c(N3CCOCC3)cc2C1=O
dTM [3]: -0.5 K

Compound: COCC(=O)NC/C=C/c1ccc2ncnc(Nc3ccc(Oc4ccc(C)nc4)c(C)c3)c2c1 [CP-724714]
% of control [4]: 97%

Compound: Cc1cc([C@@H](C)Nc2ccccc2C(=O)O)c2nc(N3CCOCC3)cc(=O)n2c1 [AZD-6482]
% of control [5]: 95%

dTM [6]: -0.88 K
Compound: Cc1cc(CN)cc(C)c1-c1ncn(C)c1-c1cncn1C

pIC50 [7]: < 5.00
Compound: CCc1cccc(CC)c1NC(=O)c1nn(C)c2c1CCc1cnc(Nc3ccc(C(=O)NC4CCN(C)CC4)cc3OC(F)(F)F)nc1-2

Compound: O=C(NOC[C@H](O)CO)c1ccc(F)c(F)c1Nc1ccc(I)cc1F
% of control [8]: 52%

Compound: CCC(=O)N1CCN(c2ccc(-n3c(=O)ccc4cnc5ccc(-c6cnc7ccccc7c6)cc5c43)cc2C(F)(F)F)CC1
% of control [9]: 100%
